Laboratory results from US12077503B2, “Substituted cyclic amides and their use as herbicides” (FMC CORPORATION, priority 2015, dated 2024).

Assays:
[1] = tested on: Galium (catchweed bedstraw, Galium aparine); assay: Test A postemergence; format: in vivo; conditions: Galium, post-emergence, 240 h, postemergence; for pest or weed control at 125 g/ha: 125 g ai/ha, visual injury vs untreated controls after approx. 10 d, 0 = no effect, 100 = complete control, read-out: Galium plant response rating (0 to 100 scale); for pest or weed control at 500 g/ha: 500 g ai/ha, 0 to 100 scale, 0 is no effect, 100 is complete control, read-out: Galium plant response rating
Procedure, shortened: (§1)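 Each rating is a visual injury score from 0 to 100 given about 10 d after treatment, judged against untreated controls kept alongside in the greenhouse. In loam soil–sand blend, seeds got a preemergence directed soil spray, while postemergence plants were 2 to 10 cm tall at spraying.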

corn (Zea mays) = assay: Test A postemergence; format: in vivo; conditions: Zea mays, post-emergence, 240 h, postemergence; for plant injury at 125 g/ha: 125 g ai/ha, visual injury vs untreated controls after approx. 10 d, 0 = no effect, 100 = complete control, read-out: Corn plant response rating (0 to 100 scale); for plant injury at 500 g/ha: 500 g ai/ha, 0 to 100 scale, 0 is no effect, 100 is complete control, read-out: Corn plant response rating
Procedure, shortened: as §1

[2] = tested on: pigweed (Amaranthus retroflexus); assay: Test A postemergence; format: in vivo; conditions: Amaranthus retroflexus, post-emergence, 240 h, postemergence; for pest or weed control at 125 g/ha: 125 g ai/ha, visual injury vs untreated controls after approx. 10 d, 0 = no effect, 100 = complete control, read-out: Pigweed plant response rating (0 to 100 scale); for pest or weed control at 500 g/ha: 500 g ai/ha, 0 to 100 scale, 0 is no effect, 100 is complete control, read-out: Pigweed plant response rating
Procedure, shortened: as §1

[3] = tested on: ragweed (common ragweed, Ambrosia elatior); assay: Test A postemergence; format: in vivo; conditions: Ambrosia artemisiifolia, post-emergence, 240 h, postemergence; for pest or weed control at 125 g/ha: 125 g ai/ha, visual injury vs untreated controls after approx. 10 d, 0 = no effect, 100 = complete control, read-out: Ragweed plant response rating (0 to 100 scale); for pest or weed control at 500 g/ha: 500 g ai/ha, 0 to 100 scale, 0 is no effect, 100 is complete control, read-out: Ragweed plant response rating
Procedure, shortened: as §1

[4] = tested on: ryegrass, Italian (Italian ryegrass, Lolium multiflorum); assay: Test A postemergence; format: in vivo; conditions: Lolium multiflorum, post-emergence, 240 h, postemergence; for pest or weed control at 125 g/ha: 125 g ai/ha, visual injury vs untreated controls after approx. 10 d, 0 = no effect, 100 = complete control, read-out: Ryegrass, Italian plant response rating (0 to 100 scale); for pest or weed control at 500 g/ha: 500 g ai/ha, 0 to 100 scale, 0 is no effect, 100 is complete control, read-out: Ryegrass, Italian plant response rating
Procedure, shortened: as §1

[5] = tested on: blackgrass (Alopecurus myosuroides); assay: Test A postemergence; format: in vivo; conditions: Alopecurus myosuroides, post-emergence, 240 h, postemergence; for pest or weed control at 125 g/ha: 125 g ai/ha, visual injury vs untreated controls after approx. 10 d, 0 = no effect, 100 = complete control, read-out: Blackgrass plant response rating (0 to 100 scale); for pest or weed control at 500 g/ha: 500 g ai/ha, 0 to 100 scale, 0 is no effect, 100 is complete control, read-out: Blackgrass plant response rating
Procedure, shortened: as §1

Row | SMILES | melting point [°C] | pest or weed control at 125 g/ha [1] [%] | pest or weed control at 500 g/ha [1] [%] | plant injury at 125 g/ha (corn (Zea mays)) [%] | plant injury at 500 g/ha (corn (Zea mays)) [%] | pest or weed control at 125 g/ha [2] [%] | pest or weed control at 500 g/ha [2] [%] | pest or weed control at 125 g/ha [3] [%] | pest or weed control at 500 g/ha [3] [%] | pest or weed control at 125 g/ha [4] [%] | pest or weed control at 500 g/ha [4] [%] | pest or weed control at 125 g/ha [5] [%] | pest or weed control at 500 g/ha [5] [%]
1 | CCc1cc([C@H]2CN(C)C(=O)[C@@H]2C(=O)Nc2ccccc2F)cs1 [Compound 1156] | 117 to 121 | 40 | 50 | 20 | 60 | 0 | 0 | 0 | 0 | 20 | 30 | 0 | 40
2 | O=C1NCC[C@H](c2cccc(Cl)c2)[C@H]1C(=O)Nc1ccccc1F [Compound 1159] | 141 to 143 | 20 | 20 | 0 | 20 | 0 | 20 | 0 | 0 | 0 | 0 | 0 | 0
3 | O=C1NC[C@H](c2nccs2)[C@H]1C(=O)Nc1cccc(F)c1F [Compound 1182] | 139.5 to 153 | 0 | 0 | 0 | 0 | 0 | 0 | 0 | 0 | 0 | 0 | 0 | 0
